Drawing on ChEMBL document CHEMBL1129132, “8-amino-6-(arylsulphonyl)-5-nitroquinolines: novel nonpeptide neuropeptide Y1 receptor antagonists” (Bioorg Med Chem Lett, 1996), this text covers IC50 and Ki for 11 molecules.

Bounds are passed on as bounds.

What is called IC50 is the concentration that inhibits the measured activity by half. What is called Ki is the equilibrium dissociation constant of an inhibitor or competing ligand from its target.

The first assay concerns the target T1, Neuropeptide Y receptor type 2 (Rattus norvegicus, UniProt Q9ERC0).
T1 sequence (Q9ERC0 whole entry): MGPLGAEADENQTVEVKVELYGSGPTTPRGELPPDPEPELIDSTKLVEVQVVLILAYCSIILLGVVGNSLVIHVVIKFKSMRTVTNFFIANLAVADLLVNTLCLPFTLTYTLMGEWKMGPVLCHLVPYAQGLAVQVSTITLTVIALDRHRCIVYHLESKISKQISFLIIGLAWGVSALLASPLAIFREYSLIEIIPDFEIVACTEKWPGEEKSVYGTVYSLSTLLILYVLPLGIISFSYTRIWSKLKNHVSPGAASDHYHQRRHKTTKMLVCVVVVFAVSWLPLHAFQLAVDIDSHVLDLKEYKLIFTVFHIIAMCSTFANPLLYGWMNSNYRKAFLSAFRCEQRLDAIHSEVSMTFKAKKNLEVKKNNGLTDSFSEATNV
Nature of the assay: Compound was tested for binding affinity against neuropeptide Y2 (NPY2) receptor from rat hippocampi. It is filed as tissue-based, Hippocampus.
For `CC(C)c1ccccc1S(=O)(=O)c1cc(N)c2ncccc2c1[N+](=O)[O-]`, the IC50 amounted to 10 µM.

On to `Nc1ccc(S(=O)(=O)c2cc(N)c3ncccc3c2[N+](=O)[O-])cc1`, for which the Ki is > 10 µM.

The next assay addresses T2, Neuropeptide Y receptor type 1 (Homo sapiens, UniProt P25929).
T2 sequence (P25929 whole entry): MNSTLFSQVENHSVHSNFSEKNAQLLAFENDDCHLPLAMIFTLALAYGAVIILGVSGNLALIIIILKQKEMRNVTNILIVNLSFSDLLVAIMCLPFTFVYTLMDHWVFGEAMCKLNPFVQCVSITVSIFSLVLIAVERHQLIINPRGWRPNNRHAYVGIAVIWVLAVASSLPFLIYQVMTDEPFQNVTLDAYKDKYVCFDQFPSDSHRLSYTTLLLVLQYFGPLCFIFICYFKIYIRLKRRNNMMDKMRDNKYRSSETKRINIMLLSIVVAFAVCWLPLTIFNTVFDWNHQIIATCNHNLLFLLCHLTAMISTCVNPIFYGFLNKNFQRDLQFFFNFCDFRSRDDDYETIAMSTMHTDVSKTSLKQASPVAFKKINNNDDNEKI
Nature of the assay: Compound was tested for binding affinity against neuropeptide Y1 (NPY1) receptor from SK-N-MC membranes using [125I]PYY as radioligand.
Consider `Nc1ccc([S+]([O-])c2cc(N)c3ncccc3c2[N+](=O)[O-])cc1` (configuration not stated), for which affinity was put at a Ki of 1.25 µM.

As to `Nc1ccc(S(=O)(=O)c2ccc3ncccc3c2[N+](=O)[O-])cc1`, the inhibition constant Ki was > 10 µM.

Turning to `Cc1cc(S(=O)(=O)c2ccccc2)c([N+](=O)[O-])c2cccnc12`, the Ki was > 10 µM.

Turning to `Nc1ccc(Sc2cc(N)c3ncccc3c2[N+](=O)[O-])cc1`, the inhibition constant Ki was > 10 µM.

Consider `Nc1ccc(S(=O)(=O)c2cc(N)c3ncccc3c2)cc1`, for which the Ki is > 10 µM.

Take `Nc1ccc(S(=O)(=O)c2cc(N)c3ncccc3c2N)cc1`: the Ki is > 10 µM.

On to `CNc1cc(S(=O)(=O)c2ccccc2)c([N+](=O)[O-])c2cccnc12`, for which the Ki was > 10 µM.

`Nc1ccc(S(=O)(=O)c2cc(N)c3ncccc3c2[N+](=O)[O-])cc1` gave an inhibition constant (Ki) of 0.282 µM.

Regarding `CS(=O)(=O)c1cc(N)c2ncccc2c1[N+](=O)[O-]`, the Ki was > 10 µM.

Regarding `Nc1cc(NS(=O)(=O)c2ccccc2)c([N+](=O)[O-])c2cccnc12`, the Ki was > 10 µM.
